“And” between values parts separate entries of the source, which are not always exact repeats. Identical values can stand only once. Inconclusive results and toxic doses are left out. Cut-off read from the data, not from the text of the source: active = T/C of 150% or more; inactive = T/C below 125%.
Tested on: L1210 leukemia ip in BDF1 mice, survival T/C
Test: NCI In Vivo Anticancer Drug Screen. Data for tumor model L1210 Leukemia (intraperitoneal) in B6D2F1 (BDF1) mice
Settings: endpoint: mean survival time, higher = longer survival
Method in brief: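 Mice bearing the transplanted tumor received compound or vehicle. Survival of the treated group was divided by that of the vehicle-treated control group to give the ratio.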

[1] = dose: 50.0 mg/kg/injection, schedule: Q01DX009 (ip), vehicle: saline
[2] = dose: 100.0 mg/kg/injection, schedule: Q01DX001 (ip), vehicle: saline with Tween-80
[3] = dose: 100.0 mg/kg/injection, schedule: Q01DX009 (ip), vehicle: saline
[4] = dose: 200.0 mg/kg/injection, schedule: Q01DX009 (ip), vehicle: saline
[5] = dose: 400.0 mg/kg/injection, schedule: Q04DX002 (ip), vehicle: saline
[6] = dose: 100.0 mg/kg/injection, schedule: Q04DX003 (ip), vehicle: saline with Tween-80
[7] = dose: 200.0 mg/kg/injection, schedule: Q04DX003 (ip), vehicle: saline with Tween-80
[8] = dose: 400.0 mg/kg/injection, schedule: Q04DX003 (ip), vehicle: saline with Tween-80
[9] = dose: 100.0 mg/kg/injection, schedule: Q01DX001 (ip), vehicle: carboxymethylcellulose (CMC)
[10] = dose: 200.0 mg/kg/injection, schedule: Q01DX001 (ip), vehicle: carboxymethylcellulose (CMC)
[11] = dose: 400.0 mg/kg/injection, schedule: Q01DX001 (ip), vehicle: carboxymethylcellulose (CMC)
[12] = dose: 12.5 mg/kg/injection, schedule: Q01DX009 (ip), vehicle: saline
[13] = dose: 25.0 mg/kg/injection, schedule: Q01DX009 (ip), vehicle: saline

Measured: T/C

CC(C)(C)C(=O)OCn1cnc(C#N)c1[N+](=O)[O-]
inactive: dose: 100.0 mg/kg/injection, schedule: Q01DX001 (ip), vehicle: acetone 92 % of control | dose: 200.0 mg/kg/injection, schedule: Q01DX001 (ip), vehicle: acetone 101 % of control | dose: 400.0 mg/kg/injection, schedule: Q01DX001 (ip), vehicle: acetone 92 % of control

CCOC(=O)c1cnc2ccccn2c1=O
inactive: [1] 96 % of control | [2] 92 % of control | [3] 93 % of control | dose: 100.0 mg/kg/injection, schedule: Q04DX003 (ip), vehicle: saline 92 % of control | dose: 200.0 mg/kg/injection, schedule: Q01DX001 (ip), vehicle: saline with Tween-80 94 % of control | [4] 101 % of control | dose: 200.0 mg/kg/injection, schedule: Q04DX003 (ip), vehicle: saline 94 % of control

O=[N+]([O-])/C=C/c1ccc([N+](=O)[O-])o1
inactive: dose: 3.0 mg/kg/injection, schedule: Q01DX001 (ip), vehicle: Klucel (hydroxypropylcellulose) (HPC) 106 % of control | dose: 6.0 mg/kg/injection, schedule: Q01DX001 (ip), vehicle: Klucel (hydroxypropylcellulose) (HPC) 98 % of control | dose: 12.0 mg/kg/injection, schedule: Q01DX001 (ip), vehicle: Klucel (hydroxypropylcellulose) (HPC) 92 % of control | dose: 12.5 mg/kg/injection, schedule: Q01DX001 (ip), vehicle: Klucel (hydroxypropylcellulose) (HPC) 107 % of control

NC(=O)N/N=C(/c1ccccc1)c1ccccn1
inactive: dose: 100.0 mg/kg/injection, schedule: Q01DX009 (ip), vehicle: saline with Tween-80 101 % of control | dose: 200.0 mg/kg/injection, schedule: Q01DX009 (ip), vehicle: saline with Tween-80 100 % of control | dose: 400.0 mg/kg/injection, schedule: Q01DX009 (ip), vehicle: saline with Tween-80 101 % of control

CC(=O)OCCc1ccc(F)cc1
inactive: dose: 100.0 mg/kg/injection, schedule: Q04DX002 (ip), vehicle: saline 102 % of control | dose: 200.0 mg/kg/injection, schedule: Q04DX002 (ip), vehicle: saline 105 % of control | [5] 102 % of control

CC(=O)OC1CCC2(C)C(CCC3C4CCC(C(C)CC(=O)O)C4CCC32)C1 (stereo unspecified)
inactive: dose: 100.0 mg/kg/injection, schedule: Q04DX003 (sc), vehicle: steriod suspending solution 106 % of control | dose: 200.0 mg/kg/injection, schedule: Q04DX003 (sc), vehicle: steriod suspending solution 106 % of control | dose: 400.0 mg/kg/injection, schedule: Q04DX003 (sc), vehicle: steriod suspending solution 111 % of control

O=C(Oc1ccc(O)cc1)c1ccccc1
inactive: dose: 25.6 mg/kg/injection, schedule: Q04DX002 (ip), vehicle: saline 88 % of control | dose: 64.0 mg/kg/injection, schedule: Q04DX002 (ip), vehicle: saline 95 % of control | dose: 160.0 mg/kg/injection, schedule: Q04DX002 (ip), vehicle: saline 92 % of control | [5] 92 % of control

Cc1ccc(-n2c(=S)[nH]c3ccccc3c2=O)cc1F
inactive: [6] 94 % of control | [7] 93 % of control | [8] 89 % of control

Cc1ccccc1NC(=O)NCCCl
inactive: [6] 88 % of control | [7] 88 % of control | [8] 98 % of control

CC1C(=O)OC2CC[N+]3([O-])CC=C(COC(=O)C(C)(O)C1(C)O)C23 (stereo unspecified)
inactive: dose: 100.0 mg/kg/injection, schedule: Q01DX001 (ip), vehicle: saline 96 % of control | dose: 200.0 mg/kg/injection, schedule: Q01DX001 (ip), vehicle: saline 96 % of control | dose: 400.0 mg/kg/injection, schedule: Q01DX001 (ip), vehicle: saline 102 % of control

[O-][N+](=Nc1cccc(Br)c1)c1cccc(Br)c1
inactive: dose: 50.0 mg/kg/injection, schedule: Q01DX001 (ip), vehicle: carboxymethylcellulose (CMC) 101 % of control | [9] 104 % of control | [10] 101 % of control | [11] 117 % of control

Nc1c(I)cc2c(c1I)Cc1cc([N+](=O)[O-])ccc1-2
inactive: [9] 106 % of control | [10] 103 % of control | [11] 103 % of control

FC(F)(F)c1nc2nc(Cl)c(Cl)nc2[nH]1
active: dose: 100.0 mg/kg/injection, schedule: Q04DX003 (ip), vehicle: Klucel (hydroxypropylcellulose) (HPC) 154 % of control | dose: 100.0 mg/kg/injection, schedule: Q04DX003 (ip), vehicle: other 176 % of control | dose: 100.0 mg/kg/injection, schedule: Q04DX003 (ip), vehicle: saline sonified 159 % of control | [6] 153 % of control and 156 % of control
inactive: dose: 6.25 mg/kg/injection, schedule: Q01DX009 (ip), vehicle: saline 99 % of control | [12] 94 % of control | dose: 25.0 mg/kg/injection, schedule: Q01DX001 (ip), vehicle: saline with Tween-80 106 % of control | dose: 25.0 mg/kg/injection, schedule: Q01DX009 (ip), vehicle: other 95 % of control | [13] 103 % of control | dose: 33.0 mg/kg/injection, schedule: Q01DX009 (ip), vehicle: other 113 % of control | dose: 44.0 mg/kg/injection, schedule: Q04DX003 (ip), vehicle: other 121 % of control | dose: 44.0 mg/kg/injection, schedule: Q04DX003 (ip), vehicle: saline sonified 94 % of control | dose: 44.0 mg/kg/injection, schedule: Q04DX003 (ip), vehicle: saline with Tween-80 102 % of control and 103 % of control | dose: 50.0 mg/kg/injection, schedule: Q01DX001 (ip), vehicle: saline with Tween-80 96 % of control | [1] 116 % of control | dose: 66.0 mg/kg/injection, schedule: Q04DX003 (ip), vehicle: saline sonified 122 % of control | dose: 66.0 mg/kg/injection, schedule: Q04DX003 (ip), vehicle: saline with Tween-80 109 % of control | [2] 110 % of control | dose: 150.0 mg/kg/injection, schedule: Q04DX003 (ip), vehicle: saline with Tween-80 102 % of control

OCC1OC(n2cnc3c2nnn2ccnc32)C(O)C1O (stereo unspecified)
inactive: [12] 98 % of control | dose: 12.5 mg/kg/injection, schedule: Q04DX002 (ip), vehicle: saline 108 % of control | [13] 101 % of control | dose: 25.0 mg/kg/injection, schedule: Q04DX002 (ip), vehicle: saline 108 % of control | [1] 98 % of control and 107 % of control and 123 % of control | dose: 50.0 mg/kg/injection, schedule: Q04DX002 (ip), vehicle: saline 104 % of control | dose: 75.0 mg/kg/injection, schedule: Q01DX009 (ip), vehicle: saline 100 % of control | dose: 100.0 mg/kg/injection, schedule: Q01DX005 (ip), vehicle: saline 114 % of control | [3] 115 % of control | dose: 115.0 mg/kg/injection, schedule: Q01DX009 (ip), vehicle: saline 104 % of control | dose: 170.0 mg/kg/injection, schedule: Q01DX009 (ip), vehicle: saline 112 % of control | dose: 200.0 mg/kg/injection, schedule: Q01DX005 (ip), vehicle: saline 107 % of control | [4] 120 % of control

O=C1NC(=O)C(c2ccccc2)(C2CCCC2)N1 (stereo unspecified)
inactive: dose: 50.0 mg/kg/injection, schedule: Q01DX009 (ip), vehicle: Klucel (hydroxypropylcellulose) (HPC) 93 % of control | dose: 100.0 mg/kg/injection, schedule: Q01DX009 (ip), vehicle: Klucel (hydroxypropylcellulose) (HPC) 98 % of control | dose: 200.0 mg/kg/injection, schedule: Q01DX009 (ip), vehicle: Klucel (hydroxypropylcellulose) (HPC) 96 % of control

CC1(C)C(=O)NC2(O)CCCC21 (stereo unspecified)
inactive: dose: 15.0 mg/kg/injection, schedule: Q01DX001 (ip), vehicle: saline 101 % of control

CSc1ncc(Br)c(N2CC2)n1
inactive: dose: 59.0 mg/kg/injection, schedule: Q01DX Z (ip), vehicle: methylcellulose (MC) 89 % of control | dose: 88.0 mg/kg/injection, schedule: Q01DX Z (ip), vehicle: methylcellulose (MC) 86 % of control
